Read-outs that look alike come from different tables or passages of the source.
How the values were obtained:
Format in all cases: cell-based
human TNF-α = assay: Inhibition of TNF-α production by stimulated human peripheral blood leukocytes in vitro (ELISA); settings: Homo sapiens, Leukocyte, PBL, read-out: Percentage of inhibition of TNF-α production; for inhibition at 10 µM: compound 10 μM; for inhibition at 50 µM: compound 50 μM
How it was run: (§1)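 Human PBL from healthy donors preincubated 2 h at 37 °C with compound, then stimulated overnight with 2 μg/mL LPS, 1 μg/mL PMA or 120 μg/mL zymosan. Supernatant cytokines measured by sandwich ELISA. % inhibition is relative to stimulated, untreated cells.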

human IL-1β = assay: Inhibition of IL-1β production by stimulated human peripheral blood leukocytes in vitro (ELISA); settings: Homo sapiens, Leukocyte, PBL, read-out: Percentage of inhibition of IL-1β production; for inhibition at 10 µM: compound 10 μM; for inhibition at 50 µM: compound 50 μM
How it was run: as §1

human IL-6 = assay: Inhibition of IL-6 production by stimulated human peripheral blood leukocytes in vitro (ELISA); settings: Homo sapiens, Leukocyte, PBL, read-out: Percentage of inhibition of IL-6 production; for inhibition at 10 µM: compound 10 μM; for inhibition at 50 µM: compound 50 μM
How it was run: as §1

human IL-8 = assay: Inhibition of IL-8 production by stimulated human peripheral blood leukocytes in vitro (ELISA); settings: Homo sapiens, Leukocyte, PBL, read-out: Percentage of inhibition of IL-8 production; for inhibition at 10 µM: compound 10 μM; for inhibition at 50 µM: compound 50 μM
How it was run: as §1

[1] = system: human peripheral blood mononuclear cells (PBMC); assay: Human peripheral blood mononuclear cell proliferation in vitro ((3H)thymidine incorporation); settings: Homo sapiens, PBMC, read-out: Percentage of inhibition of proliferation of stimulated PBMC; for inhibition at 10 µM: compound 10 μM; for inhibition at 50 µM: compound 50 μM
Procedure: Substances, used in in vitro experiments, were dissolved in dimethyl sulfoxide (DMSO) (Kemika, Croatia) at concentrations of 50 mM and 10 mM and were further diluted to the final concentrations of […] in 1 mL Dulbecco's modified Eagle medium (DMEM) supplemented with 1% heat inactivated fetal bovine serum (FBS), 1% glutamax, 50 U/ml penicillin, 50 μg/ml streptomycin and 2.5 μg/mL Fungizone (amphotericin B). Media and all media supplements were purchased from Gibco, Australia, except FBS that was from Sigma, USA.
Heparinized peripheral blood was obtained from healthy donors, and peripheral blood mononuclear cells (PBMC) were isolated by Histopaque 1077 (Sigma, USA) density centrifugation at 400 g for 30 minutes. Collected PBMC were centrifuged in plasma at 400 g/10 min, resuspended and washed in RPMI 1640 (Institute of Immunology, Croatia) by centrifugation.
Influence of substances at two different concentrations (50 μM and 10 μM) on proliferation of human peripheral blood mononuclear cells (PBMC) was assessed.
Heparinized peripheral blood was obtained from healthy donors, and PBMC were isolated by Histopaque 1077 (Sigma, USA) density centrifugation at 400 g for 30 minutes. 5×10^4 cells/well were cultured for 3 days in the RPMI medium as described above, in the presence (positive control) or absence (negative control) of stimulators [PHA (2.5 μg/mL) (Sigma, USA) or both PMA (10 ng/mL) (Sigma, USA) and ionomycin (500 ng/mL) (Calbiochem, USA)] and tested substances at 37° C. in 5% CO2 and 90% humidity. The cells were pulsed with 1 μCi of (^3H)thymidine (Amersham, USA) per well during the last 18 h of the cultures and were harvested on a 96-well filter (Packard Bioscience, USA) with a multiple cell harvester (Packard, USA). The incorporation of (^3H)thymidine in activated cells was measured by TopCount NXT (Packard, USA).
Inhibition of cell proliferation (as a percentage) was calculated using the following formula: % inhibition=(1−(^3H)thymidine incorporation expressed in counts per minute (cpm) in sample/(3H)thymidine incorporation expressed in cpm in positive control)×100 where “positive control” refers to stimulated samples not treated with substances.

A549 = settings: human, 24 h
Procedure: (§2) Anti-inflammatory activity of compounds, i.e. observed inhibition of cytokine production and inhibition of proliferation in vitro, is not a consequence of their cytotoxicity.
(§3) Measurement of the succinate dehydrogenase activity in living cells was performed in order to assess the cytotoxicity of compounds of the invention. Cells were cultured for 24 hours in RPMI medium as described above at 37° C., in the presence of the tested compounds at concentrations of 50 μM and 12.5 μM. Afterwards, MTT [3-(4,5-dimethylthiazole-2-yl)-2,5-diphenyl tetrazolium bromide] (Promega, USA) as detection reagent was added and incubated for 0.5-2 hours. The amount of produced MTT-Formazan was determined spectrophotometrically at 490 nm (Mosmann, J. Immunol. Methods, 1983, 65: 55-63).
(§4) Percentage of viable cells was calculated using the following formula: % viable cells=[…]

Hep G2 = settings: human, 24 h
Procedure: as §2, §3, §4

THP-1 = settings: human, 24 h
Procedure: as §2, §3, §4

SMILES: CC[C@H]1OC(=O)[C@H](C)[C@@H](OC(=O)CCN(CC)CC)[C@H](C)[C@@H](O[C@@H]2O[C@H](C)C[C@H](N(C)C)[C@H]2O)[C@](C)(OC)C[C@@H](C)C(=O)[C@H](C)[C@@H](O)[C@]1(C)O [Example 5, 3-O-(3-Diethylamino-propionyl)-3-O-decladinosyl-6-O-methyl-erythromycin A]
- inhibition at 10 µM (human TNF-α; LPS stimulation): 3%
- inhibition at 50 µM (human TNF-α; LPS stimulation): 92%
- inhibition at 10 µM (human TNF-α; PMA stimulation): 29%
- inhibition at 50 µM (human TNF-α; PMA stimulation): 100%
- inhibition at 10 µM (human TNF-α; zymosan stimulation): 17%
- inhibition at 50 µM (human TNF-α; zymosan stimulation): 100%
- inhibition at 10 µM (human IL-1β; LPS stimulation): 75%
- inhibition at 50 µM (human IL-1β; LPS stimulation): 80%
- inhibition at 10 µM (human IL-1β; PMA stimulation): 91%
- inhibition at 50 µM (human IL-1β; PMA stimulation): 100%
- inhibition at 10 µM (human IL-1β; zymosan stimulation): 68%
- inhibition at 50 µM (human IL-1β; zymosan stimulation): 100%
- inhibition at 10 µM (human IL-6; LPS stimulation): 38%
- inhibition at 50 µM (human IL-6; LPS stimulation): 100%
- inhibition at 10 µM (human IL-6; PMA stimulation): 78%
- inhibition at 50 µM (human IL-6; PMA stimulation): 100%
- inhibition at 10 µM (human IL-6; zymosan stimulation): 51%
- inhibition at 50 µM (human IL-6; zymosan stimulation): 100%
- inhibition at 10 µM (human IL-8; LPS stimulation): 22%
- inhibition at 50 µM (human IL-8; LPS stimulation): 95%
- inhibition at 10 µM (human IL-8; PMA stimulation): 48%
- inhibition at 50 µM (human IL-8; PMA stimulation): 83%
- inhibition at 10 µM (human IL-8; zymosan stimulation): 48%
- inhibition at 50 µM (human IL-8; zymosan stimulation): 100%
- inhibition at 10 µM ([1]; PHA stimulation): 99%
- inhibition at 50 µM ([1]; PHA stimulation): 100%
- inhibition at 10 µM ([1]; PMA + ionomycin stimulation): 90%
- inhibition at 50 µM ([1]; PMA + ionomycin stimulation): 100%
- Percentage of viable cells after treatment (A549; 12.5 μM): 100%
- Percentage of viable cells after treatment (A549; 50 μM): 100%
- Percentage of viable cells after treatment (Hep G2; 12.5 μM): >86%
- Percentage of viable cells after treatment (Hep G2; 50 μM): 100%
- Percentage of viable cells after treatment (THP-1; 12.5 μM): 100%
- Percentage of viable cells after treatment (THP-1; 50 μM): >80%

SMILES: CC[C@H]1OC(=O)[C@H](C)[C@@H](O[C@H]2C[C@@](C)(OC)[C@@H](O)[C@H](C)O2)[C@H](C)[C@@H](O[C@@H]2O[C@H](C)C[C@H](N(C)C)[C@H]2O)[C@](C)(OC)C[C@@H](C)C(=O)[C@H](C)[C@@H](O)[C@]1(C)O [clarithromycin, reference compound]
- inhibition at 10 µM (human TNF-α; LPS stimulation): 0%
- inhibition at 50 µM (human TNF-α; LPS stimulation): 0%
- inhibition at 10 µM (human TNF-α; PMA stimulation): 0%
- inhibition at 50 µM (human TNF-α; PMA stimulation): 0%
- inhibition at 10 µM (human TNF-α; zymosan stimulation): 0%
- inhibition at 50 µM (human TNF-α; zymosan stimulation): 0%
- inhibition at 10 µM (human IL-1β; LPS stimulation): 0%
- inhibition at 50 µM (human IL-1β; LPS stimulation): 0%
- inhibition at 10 µM (human IL-1β; PMA stimulation): 26%
- inhibition at 50 µM (human IL-1β; PMA stimulation): 33%
- inhibition at 10 µM (human IL-1β; zymosan stimulation): 36%
- inhibition at 50 µM (human IL-1β; zymosan stimulation): 59%
- inhibition at 10 µM (human IL-6; LPS stimulation): 11%
- inhibition at 50 µM (human IL-6; LPS stimulation): 0%
- inhibition at 10 µM (human IL-6; PMA stimulation): 0%
- inhibition at 50 µM (human IL-6; PMA stimulation): 0%
- inhibition at 10 µM (human IL-6; zymosan stimulation): 28%
- inhibition at 50 µM (human IL-6; zymosan stimulation): 0%
- inhibition at 10 µM (human IL-8; LPS stimulation): 23%
- inhibition at 50 µM (human IL-8; LPS stimulation): 0%
- inhibition at 10 µM (human IL-8; PMA stimulation): 33%
- inhibition at 50 µM (human IL-8; PMA stimulation): 0%
- inhibition at 10 µM (human IL-8; zymosan stimulation): 0%
- inhibition at 50 µM (human IL-8; zymosan stimulation): 0%
- inhibition at 10 µM ([1]; PHA stimulation): 0%
- inhibition at 50 µM ([1]; PHA stimulation): 7%
- inhibition at 10 µM ([1]; PMA + ionomycin stimulation): 9%
- inhibition at 50 µM ([1]; PMA + ionomycin stimulation): 14%
- Percentage of viable cells after treatment (A549; 12.5 μM): 100%
- Percentage of viable cells after treatment (A549; 50 μM): 100%
- Percentage of viable cells after treatment (Hep G2; 12.5 μM): 100%
- Percentage of viable cells after treatment (Hep G2; 50 μM): 100%
- Percentage of viable cells after treatment (THP-1; 12.5 μM): 100%
- Percentage of viable cells after treatment (THP-1; 50 μM): >95%

SMILES: CC[C@H]1OC(=O)[C@H](C)[C@@H](O[C@H]2C[C@@](C)(OC)[C@@H](O)[C@H](C)O2)[C@H](C)[C@@H](O[C@@H]2O[C@H](C)C[C@H](N(C)C)[C@H]2O)[C@](C)(O)C[C@@H](C)CN(C)[C@H](C)[C@@H](O)[C@]1(C)O [azithromycin, reference compound]
- inhibition at 10 µM (human TNF-α; LPS stimulation): 36%
- inhibition at 50 µM (human TNF-α; LPS stimulation): 20%
- inhibition at 10 µM (human TNF-α; PMA stimulation): 0%
- inhibition at 50 µM (human TNF-α; PMA stimulation): 0%
- inhibition at 10 µM (human TNF-α; zymosan stimulation): 6%
- inhibition at 50 µM (human TNF-α; zymosan stimulation): 64%
- inhibition at 10 µM (human IL-1β; LPS stimulation): 28%
- inhibition at 50 µM (human IL-1β; LPS stimulation): 48%
- inhibition at 10 µM (human IL-1β; PMA stimulation): 0%
- inhibition at 50 µM (human IL-1β; PMA stimulation): 0%
- inhibition at 10 µM (human IL-1β; zymosan stimulation): 20%
- inhibition at 50 µM (human IL-1β; zymosan stimulation): 75%
- inhibition at 10 µM (human IL-6; LPS stimulation): 15%
- inhibition at 50 µM (human IL-6; LPS stimulation): 40%
- inhibition at 10 µM (human IL-6; PMA stimulation): 0%
- inhibition at 50 µM (human IL-6; PMA stimulation): 0%
- inhibition at 10 µM (human IL-6; zymosan stimulation): 20%
- inhibition at 50 µM (human IL-6; zymosan stimulation): 75%
- inhibition at 10 µM (human IL-8; LPS stimulation): 0%
- inhibition at 50 µM (human IL-8; LPS stimulation): 0%
- inhibition at 10 µM (human IL-8; PMA stimulation): 0%
- inhibition at 50 µM (human IL-8; PMA stimulation): 0%
- inhibition at 10 µM (human IL-8; zymosan stimulation): 0%
- inhibition at 50 µM (human IL-8; zymosan stimulation): 0%
- inhibition at 10 µM ([1]; PHA stimulation): 5%
- inhibition at 50 µM ([1]; PHA stimulation): 29%
- inhibition at 10 µM ([1]; PMA + ionomycin stimulation): 9%
- inhibition at 50 µM ([1]; PMA + ionomycin stimulation): 31%
- Percentage of viable cells after treatment (A549; 12.5 μM): 100%
- Percentage of viable cells after treatment (A549; 50 μM): 100%
- Percentage of viable cells after treatment (Hep G2; 12.5 μM): 100%
- Percentage of viable cells after treatment (Hep G2; 50 μM): >95%
- Percentage of viable cells after treatment (THP-1; 12.5 μM): 100%
- Percentage of viable cells after treatment (THP-1; 50 μM): >95%

From US7910559B2, “Decladinosyl-macrolides with anti-inflammatory activity” (GlaxoSmithKline istrazivacki centar Zagreb d.o.o., priority 2005, dated 2011)
